Test results as given in patent US10105357B2, “Indication of antibiotic drugs for preparation of cancer inhibition pharmaceutical composition” (LAUNX BIOMEDICAL CO., LTD., priority 2014, dated 2018).
Structures can show the parent of a compound that is named as a salt. Where two headings read alike, the source gives them in different places.

Columns and labels:
Format in all cases: cell-based, human
cancer cell lines = experiment: Cell viability analysis (WST-1) on cancer cell lines; settings: drug 10 μM, 72 hours, WST-1; Table 3
[1] = test system: HI650 (Lung Adenocarcinoma); experiment: Cell viability analysis, lung cancer HI650; settings: for viability at 10 µM: Homo sapiens
[2] = test system: A549 (Lung Adenocarcinoma); experiment: Cell viability analysis, lung cancer A549; settings: for viability at 10 µM: Homo sapiens
[3] = test system: AGS (Gastric Adenocarcinoma); experiment: Cell viability analysis, gastric cancer AGS; settings: for viability at 10 µM: Homo sapiens
[4] = test system: MKN-45 (Gastric Adenocarcinoma); experiment: Cell viability analysis, gastric cancer MKN-45; settings: for viability at 10 µM: Homo sapiens
[5] = test system: HepG2 (Hepatocellular Carcinoma); experiment: Cell viability analysis, hepatic cancer HepG2; settings: for viability at 10 µM: Homo sapiens
[6] = test system: LoVo (Colorectal Adenocarcinoma); experiment: Cell viability analysis, colon cancer LoVo; settings: Homo sapiens, LoVo, 72 h, read-out: cell viability (survival rate), LoVo, drug 10 μM, 72 hours, WST-1, OD450 nm
[7] = test system: A375 (Amelanotic Melanoma); experiment: Cell viability analysis, skin cancer A375; settings: for viability at 10 µM: Homo sapiens
[8] = test system: HeLa (Cervix Adenocarcinoma); experiment: Cell viability analysis, cervical cancer HeLa; settings: Homo sapiens, HeLa
[9] = test system: PC3 (p53−) (Prostate Adenocarcinoma); experiment: Cell viability analysis, prostate cancer PC3; settings: for viability at 10 µM: Homo sapiens
[10] = test system: MCF7 (Mammary Gland, Adenocarcinoma); experiment: Cell viability analysis, breast cancer MCF7; settings: Homo sapiens, MCF7, 72 h
[11] = test system: HL-60 (Acute Promyelocytic Leukemia); experiment: Cell viability analysis, leukemia HL-60; settings: for viability at 10 µM: Homo sapiens
[12] = test system: TSGH-8301 (Urinary Bladder Carcinoma); experiment: Cell viability analysis, bladder cancer TSGH-8301; settings: for viability at 10 µM: Homo sapiens
[13] = NCI-H1650, 72 h, read-out: cell viability (survival rate), H1650, drug 10 μM, 72 hours, WST-1, OD450 nm
[14] = A549, 72 h, read-out: cell viability (survival rate), A549, drug 10 μM, 72 hours, WST-1, OD450 nm
[15] = 72 h, read-out: cell viability (survival rate), AGS, drug 10 μM, 72 hours, WST-1, OD450 nm
[16] = MKN-45, 72 h, read-out: cell viability (survival rate), MKN-45, drug 10 μM, 72 hours, WST-1, OD450 nm
[17] = HepG2, 72 h, read-out: cell viability (survival rate), HepG2, drug 10 μM, 72 hours, WST-1, OD450 nm
[18] = A-375, 72 h, read-out: cell viability (survival rate), A375, drug 10 μM, 72 hours, WST-1, OD450 nm
[19] = 72 h, read-out: cell viability (survival rate), HeLa, drug 10 μM, 72 hours, WST-1, OD450 nm
[20] = 72 h, read-out: cell viability (survival rate), PC3, drug 10 μM, 72 hours, WST-1, OD450 nm
[21] = read-out: cell viability (survival rate), MCF7, drug 10 μM, 72 hours, WST-1, OD450 nm
[22] = HL-60, 72 h, read-out: cell viability (survival rate), HL-60, drug 10 μM, 72 hours, WST-1, OD450 nm
[23] = 72 h, read-out: cell viability (survival rate), TSGH, drug 10 μM, 72 hours, WST-1, OD450 nm
[24] = drug 10 μM, 72 hours, WST-1, OD450 nm

Row | Compound | inhibition effect on different cancer cell lines (cancer cell lines) | viability at 10 µM [1, 13] | viability at 10 µM [2, 14] | viability at 10 µM [3, 15] | viability at 10 µM [4, 16] | viability at 10 µM [5, 17] | viability at 10 µM [6] | viability at 10 µM [7, 18] | viability at 10 µM [8, 19] | viability at 10 µM [9, 20] | viability at 10 µM [10, 21] | viability at 10 µM [11, 22] | viability at 10 µM [12, 23] | further results
1 | CN1[C@@H]2CC[C@H]1C[C@@H](OC(c1ccccc1)c1ccccc1)C2 [Benztropine mesylate] | significant inhibition effect | 91.7% | 68.2% | 83% | 89.4% | 86% | 81.4% | 67.5% | 95.3% | 75.3% | 63.3% | 81.1% | – | –
2 | CC[C@H]1OC(=O)[C@H](C)[C@@H](O[C@H]2C[C@@](C)(OC)[C@@H](O)[C@H](C)O2)[C@H](C)[C@@H](O[C@@H]2O[C@H](C)C[C@H](N(C)C)[C@H]2O)[C@](C)(O)C[C@@H](C)C(=O)[C@H](C)[C@@H](O)[C@]1(C)O [Erythromycin (E-Mycin), Erythromycin] | significant inhibition effect | 90.4% | 63.8% | 27.7% | 53.2% | 93.5% | 85.5% | – | 93% | 86% | 45.2% | 111% | 42.6% | –
3 | CC(C)(C)C(=O)C(Oc1ccc(Cl)cc1)n1ccnc1 (stereo not drawn) [Climbazole] | significant inhibition effect | – | – | – | – | – | – | – | – | – | – | – | – | viability at 10 µM ([1]; NCI-H1650, drug 10 μM, 72 hours, WST-1, OD450 nm, read-out: cell viability (survival rate), H1650): 84.2%; viability at 10 µM ([2]; A549, drug 10 μM, 72 hours, WST-1, OD450 nm, read-out: cell viability (survival rate), A549): 72.7%; viability at 10 µM ([3]; drug 10 μM, 72 hours, WST-1, OD450 nm, read-out: cell viability (survival rate), AGS): 93.3%; viability at 10 µM ([4]; MKN-45, drug 10 μM, 72 hours, WST-1, OD450 nm, read-out: cell viability (survival rate), MKN-45): 97.7%; viability at 10 µM ([5]; HepG2, drug 10 μM, 72 hours, WST-1, OD450 nm, read-out: cell viability (survival rate), HepG2): 94.4%; viability at 10 µM ([7]; A-375, drug 10 μM, 72 hours, WST-1, OD450 nm, read-out: cell viability (survival rate), A375): 70.6%; viability at 10 µM ([8]; drug 10 μM, 72 hours, WST-1, OD450 nm, read-out: cell viability (survival rate), HeLa): 94%; viability at 10 µM ([9]; drug 10 μM, 72 hours, WST-1, OD450 nm, read-out: cell viability (survival rate), PC3): 99.6%; viability at 10 µM ([12]; drug 10 μM, 72 hours, WST-1, OD450 nm, read-out: cell viability (survival rate), TSGH): 102%; viability at 10 µM ([11]; HL-60, drug 10 μM, 72 hours, WST-1, OD450 nm, read-out: cell viability (survival rate), HL-60): 111%
4 | Oc1ccc(C=Cc2cc(O)cc(O)c2)cc1 [Resveratrol] | significant inhibition effect | 54.6% | 72.5% | 47.9% | 91.8% | – | 83.2% | 53% | 108% | 75% | 71.8% | 76.4% | 85.3% | –
5 | OC(Cn1cncn1)(Cn1cncn1)c1ccc(F)cc1F [Fluconazole] | significant inhibition effect | 45.3% | 125% | 50.2% | 76.2% | 97.4% | 102% | 76.9% | 79.2% | 97.7% | – | 106% | 66.1% | –
6 | Cc1cc(-n2c(=O)[nH]c(=O)n(C)c2=O)ccc1Oc1ccc(SC(F)(F)F)cc1 [toltrazuril] | significant inhibition effect | – | – | – | – | – | 61.9% | – | – | – | – | – | – | viability at 10 µM ([1]; NCI-H1650, 72 h, drug 10 μM, 72 hours, WST-1, OD450 nm, read-out: cell viability (survival rate), H1650): 70.9%; viability at 10 µM ([2]; A549, 72 h, drug 10 μM, 72 hours, WST-1, OD450 nm, read-out: cell viability (survival rate), A549): 61.2%; viability at 10 µM ([3]; 72 h, drug 10 μM, 72 hours, WST-1, OD450 nm, read-out: cell viability (survival rate), AGS): 26.3%; viability at 10 µM ([5]; HepG2, 72 h, drug 10 μM, 72 hours, WST-1, OD450 nm, read-out: cell viability (survival rate), HepG2): 62.2%; viability at 10 µM ([7]; A-375, 72 h, drug 10 μM, 72 hours, WST-1, OD450 nm, read-out: cell viability (survival rate), A375): 27.7%; viability at 10 µM ([8]; 72 h, drug 10 μM, 72 hours, WST-1, OD450 nm, read-out: cell viability (survival rate), HeLa): 70.1%; viability at 10 µM ([9]; 72 h, drug 10 μM, 72 hours, WST-1, OD450 nm, read-out: cell viability (survival rate), PC3): 30.3%; viability at 10 µM ([12]; 72 h, drug 10 μM, 72 hours, WST-1, OD450 nm, read-out: cell viability (survival rate), TSGH): 34.8%; viability at 10 µM ([10]; drug 10 μM, 72 hours, WST-1, OD450 nm, read-out: cell viability (survival rate), MCF7): 67.4%; viability at 10 µM ([11]; HL-60, 72 h, drug 10 μM, 72 hours, WST-1, OD450 nm, read-out: cell viability (survival rate), HL-60): 73.1%
7 | O=C(N[C@H](CO)[C@H](O)c1ccc([N+](=O)[O-])cc1)C(Cl)Cl [Chloramphenicol (Chloromycetin), Chloramphenicol] | significant inhibition effect | 75.6% | 96.3% | 90.6% | 66.8% | 93.6% | – | 114% | 85% | 120% | 89.1% | 105% | 83.5% | –
8 | Cc1ccnc(NS(=O)(=O)c2ccc(N)cc2)n1 [Sulfamerazine] | significant inhibition effect | 108% | 103% | 87.9% | 87.4% | – | 99.6% | 80.4% | 92.3% | 78.4% | 79.8% | 105% | 90% | –
9 | O=c1[nH]c(=O)n([C@H]2C[C@H](O)[C@@H](CO)O2)cc1I [Idoxuridine] | significant inhibition effect | 82.8% | 58.5% | 68.7% | 80.8% | 122% | 72.7% | 81.5% | – | 57.8% | 47.3% | 96.1% | 88% | –
10 | COc1c(N2C[C@@H]3CCCN[C@@H]3C2)c(F)cc2c(=O)c(C(=O)O)cn(C3CC3)c12 [Moxifloxacin hydrochloride] | significant inhibition effect | 70.9% | 95.5% | 77.1% | 89% | – | 102% | 94% | 92% | 69.1% | 90.3% | 97.1% | 75.7% | –
11 | Caspofungin acetate | significant inhibition effect | – | – | – | – | – | – | – | – | – | – | – | – | cell viability (survival rate), H1650 [1, 24]: 37.1; cell viability (survival rate), A549 [2, 24]: 78.4; cell viability (survival rate), AGS [3, 24]: 94.2; cell viability (survival rate), MKN-45 [4, 24]: 36.4; cell viability (survival rate), HepG2 [5, 24]: 95.3; cell viability (survival rate), A375 [7, 24]: 70.5; cell viability (survival rate), PC3 [9, 24]: 59.4; cell viability (survival rate), TSGH [12, 24]: 123.7; cell viability (survival rate), HL-60 [11, 24]: 124.4
